Experiments:
[1] = in the body; no source or species given; cited from earlier work
[2] = test system: LoVo tumor cells; test: Anti-tumoral efficacy in the colorectal adenocarcinoma xenograft model LoVo; format: in vivo, NCr nu/nu mice
Procedure: Study Design: A total of 50 female NCr nu/nu mice (10 per group) at the age of 8-12 weeks were injected with 1×10^7 LoVo tumor cells in 50% Matrigel sc in flank. After seven days they were administered intraperitoneal injections according to the schedule in table 2. Animals were monitored individually. The endpoint of the experiment was a tumor weight of 1000 mm^3 or 75 days, whichever came first. Responders could be followed longer. When the endpoint was reached, the animals were euthanized. Body weight (g) and tumor volume (mm^3) was measured on days 1, 2, 3, 4, 5, 7, 11, 14, 18, 21, 25, 28, 32, 35, 39, 42, 46, 49, 53, 56, 60, 63, 67, 70 and 74.

Row | Compound | half life [1] | Median tumor volume over time (FIG. 2), in words ([2]; LoVo xenograft, days 1-74) | Time to endpoint, Kaplan-Meier plot (FIG. 3), in words ([2]; endpoint: tumor weight of 1000 mm^3 or 75 days)
1 | CN1c2c(nc(N)[nH]c2=O)NCC1CNc1ccc(C(=O)N[C@@H](CCC(=O)O)C(=O)O)cc1 (stereo partly shown) [methyl-THF, 5-methyltetrahydrofolate] | approximately 5 hours | – | –
2 | Nc1nc2c(c(=O)[nH]1)N1CN(c3ccc(C(=O)N[C@@H](CCC(=O)O)C(=O)O)cc3)CC1CN2 (stereo partly shown) [methylene-THF, 5,10-methylene tetrahydrofolate] | approximately 20 min | enhances the anti-tumor growth effect of cetuximab | enhancing the beneficial effect of cetuximab

From patent US9675617B2, “Tetrahydrofolates in combination with EGFR-inhibitors” (ISOFOL MEDICAL AB, priority 2012, dated 2017)
